Results: patent US6914045B2, “Glycopeptide antibiotics” (Wyeth Holdings Corporation, priority 2001, dated 2005)
Converted amounts (≈) assume the structure as drawn. Blank lines part the entries; values can stand above or below the molecule they belong to.

Key:
Assay in all cases: in vitro antibacterial evaluation, MIC by broth dilution
Type in all cases: cell-based
Enterococcus sp. = conditions: broth dilution, 18 hours at 35° C.
Summary of the method: (§1)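 Following National Committee for Clinical Laboratory Standards recommendations (M7-A2), susceptibility was measured by dilution in Muller-Hinton II […]. Bacteria were seeded at 5×10^5 CFU/mL against compound concentrations from 64 down to 0.06 μg/mL.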

Streptococcus sp. = conditions: broth dilution, 18 hours at 35° C.
Summary of the method: as §1

Staphylococcus sp. = conditions: broth dilution, 18 hours at 35° C.
Summary of the method: as §1

Escherichia coli = conditions: 18 hours at 35° C.

MIC Enterococcus avium (GC 4558) (Enterococcus sp.): 8 µg/mL (≈ 6.86 µM)
MIC Enterococcus faecalis (ATCC 29212) (Enterococcus sp.): 64 µg/mL (≈ 54.9 µM)
MIC Enterococcus faecalis (GC 2242) (Enterococcus sp.): 64 µg/mL (≈ 54.9 µM)
MIC Enterococcus faecalis (GC 2691) (Enterococcus sp.): 32 µg/mL (≈ 27.5 µM)
MIC Enterococcus faecalis (GC 3059) (Enterococcus sp.): 128 µg/mL (≈ 110 µM)
MIC Enterococcus faecalis (GC 4552) (Enterococcus sp.): 128 µg/mL (≈ 110 µM)
MIC Enterococcus faecalis (GC 4553) (Enterococcus sp.): 16 µg/mL (≈ 13.7 µM)
MIC Enterococcus faecalis (GC 4554) (Enterococcus sp.): 64 µg/mL (≈ 54.9 µM)
MIC Enterococcus faecalis (GC 6189) (Enterococcus sp.): 32 µg/mL (≈ 27.5 µM)
MIC Enterococcus faecium (GC 2243) (Enterococcus sp.): 32 µg/mL (≈ 27.5 µM)
MIC Enterococcus faecium (GC 4556) (Enterococcus sp.): 32 µg/mL (≈ 27.5 µM)
MIC Enterococcus faecium (GC 4557) (Enterococcus sp.): 16 µg/mL (≈ 13.7 µM)
MIC Enterococcus faecalis (ATCC 29212) (Enterococcus sp.; strain ATCC 29212): 64 µg/mL (≈ 54.9 µM)
MIC Enterococcus faecalis (GC 2242) (Enterococcus sp.; strain GC 2242): 64 µg/mL (≈ 54.9 µM)
MIC Enterococcus faecium (GC 2243) (Enterococcus sp.; strain GC 2243): 32 µg/mL (≈ 27.5 µM)
MIC Enterococcus faecalis (GC 2691) (Enterococcus sp.; strain GC 2691): 32 µg/mL (≈ 27.5 µM)
MIC Enterococcus faecalis (GC 3059) (Enterococcus sp.; strain GC 3059): 128 µg/mL (≈ 110 µM)
MIC Enterococcus faecalis (GC 4552) (Enterococcus sp.; strain GC 4552): 128 µg/mL (≈ 110 µM)
MIC Enterococcus faecalis (GC 4553) (Enterococcus sp.; strain GC 4553): 16 µg/mL (≈ 13.7 µM)
MIC Enterococcus faecalis (GC 4554) (Enterococcus sp.; strain GC 4554): 64 µg/mL (≈ 54.9 µM)
MIC Enterococcus faecium (GC 4556) (Enterococcus sp.; strain GC 4556): 32 µg/mL (≈ 27.5 µM)
MIC Enterococcus faecium (GC 4557) (Enterococcus sp.; strain GC 4557): 16 µg/mL (≈ 13.7 µM)
MIC Enterococcus avium (GC 4558) (Enterococcus sp.; strain GC 4558): 8 µg/mL (≈ 6.86 µM)
MIC Enterococcus faecalis (GC 6189) (Enterococcus sp.; strain GC 6189): 32 µg/mL (≈ 27.5 µM)
MIC Streptococcus agalactiae (GC 4564) (Streptococcus sp.): 64 µg/mL (≈ 54.9 µM)
MIC Streptococcus pneumoniae (ATCC 6301) (Streptococcus sp.): 64 µg/mL (≈ 54.9 µM)
MIC Streptococcus pneumoniae (GC 1894) (Streptococcus sp.): 64 µg/mL (≈ 54.9 µM)
MIC Streptococcus pneumoniae (GC 4565) (Streptococcus sp.): 128 µg/mL (≈ 110 µM)
MIC Streptococcus pyogenes (GC 4563) (Streptococcus sp.): 32 µg/mL (≈ 27.5 µM)
MIC Streptococcus pneumoniae (ATCC 6301) (Streptococcus sp.; strain ATCC 6301): 64 µg/mL (≈ 54.9 µM)
MIC Streptococcus pneumoniae (GC 1894) (Streptococcus sp.; strain GC 1894): 64 µg/mL (≈ 54.9 µM)
MIC Streptococcus pyogenes (GC 4563) (Streptococcus sp.; strain GC 4563): 32 µg/mL (≈ 27.5 µM)
MIC Streptococcus agalactiae (GC 4564) (Streptococcus sp.; strain GC 4564): 64 µg/mL (≈ 54.9 µM)
MIC Streptococcus pneumoniae (GC 4565) (Streptococcus sp.; strain GC 4565): 128 µg/mL (≈ 110 µM)
MIC Coagulase Negative Staphylococcus (GC 4547) (Staphylococcus sp.): 16 µg/mL (≈ 13.7 µM)
MIC Coagulase Negative Staphylococcus (GC 4548) (Staphylococcus sp.): 32 µg/mL (≈ 27.5 µM)
MIC Coagulase Negative Staphylococcus (GC 4549) (Staphylococcus sp.): 32 µg/mL (≈ 27.5 µM)
MIC Coagulase Negative Staphylococcus (GC 4551) (Staphylococcus sp.): 32 µg/mL (≈ 27.5 µM)
MIC Coagulase Negative Staphylococcus (GC 6257) (Staphylococcus sp.): 16 µg/mL (≈ 13.7 µM)
MIC Staphylococcus aureus (ATCC 29213) (Staphylococcus sp.): 32 µg/mL (≈ 27.5 µM)
MIC Staphylococcus aureus (GC 1131) (Staphylococcus sp.): 32 µg/mL (≈ 27.5 µM)
MIC Staphylococcus aureus (GC 3051) (Staphylococcus sp.): 64 µg/mL (≈ 54.9 µM)
MIC Staphylococcus aureus (GC 3053) (Staphylococcus sp.): 64 µg/mL (≈ 54.9 µM)
MIC Staphylococcus aureus (GC 4541) (Staphylococcus sp.): 32 µg/mL (≈ 27.5 µM)
MIC Staphylococcus aureus (GC 4542) (Staphylococcus sp.): 64 µg/mL (≈ 54.9 µM)
MIC Staphylococcus aureus (GC 4544) (Staphylococcus sp.): 32 µg/mL (≈ 27.5 µM)
MIC Staphylococcus aureus (GC 4545) (Staphylococcus sp.): 32 µg/mL (≈ 27.5 µM)
MIC Staphylococcus aureus-SMITH (GC 4543) (Staphylococcus sp.): 32 µg/mL (≈ 27.5 µM)
MIC Staphylococcus aureus (ATCC 29213) (Staphylococcus sp.; strain ATCC 29213): 32 µg/mL (≈ 27.5 µM)
MIC Staphylococcus aureus (GC 1131) (Staphylococcus sp.; strain GC 1131): 32 µg/mL (≈ 27.5 µM)
MIC Staphylococcus aureus (GC 3051) (Staphylococcus sp.; strain GC 3051): 64 µg/mL (≈ 54.9 µM)
MIC Staphylococcus aureus (GC 3053) (Staphylococcus sp.; strain GC 3053): 64 µg/mL (≈ 54.9 µM)
MIC Staphylococcus aureus (GC 4541) (Staphylococcus sp.; strain GC 4541): 32 µg/mL (≈ 27.5 µM)
MIC Staphylococcus aureus (GC 4542) (Staphylococcus sp.; strain GC 4542): 64 µg/mL (≈ 54.9 µM)
MIC Staphylococcus aureus-SMITH (GC 4543) (Staphylococcus sp.; strain GC 4543): 32 µg/mL (≈ 27.5 µM)
MIC Staphylococcus aureus (GC 4544) (Staphylococcus sp.; strain GC 4544): 32 µg/mL (≈ 27.5 µM)
MIC Staphylococcus aureus (GC 4545) (Staphylococcus sp.; strain GC 4545): 32 µg/mL (≈ 27.5 µM)
MIC Coagulase Negative Staphylococcus (GC 4547) (Staphylococcus sp.; strain GC 4547): 16 µg/mL (≈ 13.7 µM)
MIC Coagulase Negative Staphylococcus (GC 4548) (Staphylococcus sp.; strain GC 4548): 32 µg/mL (≈ 27.5 µM)
MIC Coagulase Negative Staphylococcus (GC 4549) (Staphylococcus sp.; strain GC 4549): 32 µg/mL (≈ 27.5 µM)
MIC Coagulase Negative Staphylococcus (GC 4551) (Staphylococcus sp.; strain GC 4551): 32 µg/mL (≈ 27.5 µM)
MIC Coagulase Negative Staphylococcus (GC 6257) (Staphylococcus sp.; strain GC 6257): 16 µg/mL (≈ 13.7 µM)
MIC Escherichia coli (ATCC 25922) (Escherichia coli): 64 µg/mL (≈ 54.9 µM)
MIC Escherichia coli (GC 4559) (Escherichia coli): 64 µg/mL (≈ 54.9 µM)
MIC Escherichia coli (GC 4560) (Escherichia coli): 8 µg/mL (≈ 6.86 µM)
Structure (SMILES): CC(c1ccccc1)C1NC(=O)CNC(=O)C(CO[Si](C)(C)C(C)(C)C)NC(=O)C(C(O)C2CNC(=N)N2C2OC3COC(C)(C)OC3C3OC(C)(C)OC32)NC(=O)C(C(O)C2CNC(=N)N2)NC(=O)C(Cc2ccc(O)cc2)NC1=O (stereo not drawn) [Example 248]
MIC Staphylococcus haemolyticus (GC 4546) (Staphylococcus sp.): 16 µg/mL (≈ 13.7 µM)
MIC Staphylococcus haemolyticus (GC 4546) (Staphylococcus sp.; strain GC 4546): 16 µg/mL (≈ 13.7 µM)

MIC Enterococcus avium (GC 4558) (Enterococcus sp.): >64 µg/mL
MIC Enterococcus faecalis (ATCC 29212) (Enterococcus sp.): >64 µg/mL
MIC Enterococcus faecalis (GC 2242) (Enterococcus sp.): >64 µg/mL
MIC Enterococcus faecalis (GC 4552) (Enterococcus sp.): >64 µg/mL
MIC Enterococcus faecalis (GC 4553) (Enterococcus sp.): >64 µg/mL
MIC Enterococcus faecalis (GC 4554) (Enterococcus sp.): >64 µg/mL
MIC Enterococcus faecium (GC 2243) (Enterococcus sp.): >64 µg/mL
MIC Enterococcus faecium (GC 4556) (Enterococcus sp.): >64 µg/mL
MIC Enterococcus faecium (GC 4557) (Enterococcus sp.): 64 µg/mL (≈ 45.4 µM)
MIC Enterococcus faecalis (ATCC 29212) (Enterococcus sp.; strain ATCC 29212): >64 µg/mL
MIC Enterococcus faecalis (GC 2242) (Enterococcus sp.; strain GC 2242): >64 µg/mL
MIC Enterococcus faecium (GC 2243) (Enterococcus sp.; strain GC 2243): >64 µg/mL
MIC Enterococcus faecalis (GC 4552) (Enterococcus sp.; strain GC 4552): >64 µg/mL
MIC Enterococcus faecalis (GC 4553) (Enterococcus sp.; strain GC 4553): >64 µg/mL
MIC Enterococcus faecalis (GC 4554) (Enterococcus sp.; strain GC 4554): >64 µg/mL
MIC Enterococcus faecium (GC 4556) (Enterococcus sp.; strain GC 4556): >64 µg/mL
MIC Enterococcus faecium (GC 4557) (Enterococcus sp.; strain GC 4557): 64 µg/mL (≈ 45.4 µM)
MIC Enterococcus avium (GC 4558) (Enterococcus sp.; strain GC 4558): >64 µg/mL
MIC Streptococcus agalactiae (GC 4564) (Streptococcus sp.): >64 µg/mL
MIC Streptococcus pneumoniae (GC 4565) (Streptococcus sp.): 64 µg/mL (≈ 45.4 µM)
MIC Streptococcus pyogenes (ID-3187) (Streptococcus sp.): 64 µg/mL (≈ 45.4 µM)
MIC Streptococcus agalactiae (GC 4564) (Streptococcus sp.; strain GC 4564): >64 µg/mL
MIC Streptococcus pneumoniae (GC 4565) (Streptococcus sp.; strain GC 4565): 64 µg/mL (≈ 45.4 µM)
MIC Streptococcus pyogenes (ID-3187) (Streptococcus sp.; strain ID-3187): 64 µg/mL (≈ 45.4 µM)
MIC Coagulase Negative Staphylococcus (GC 4547) (Staphylococcus sp.): >64 µg/mL
MIC Coagulase Negative Staphylococcus (GC 4548) (Staphylococcus sp.): >64 µg/mL
MIC Coagulase Negative Staphylococcus (GC 4549) (Staphylococcus sp.): >64 µg/mL
MIC Coagulase Negative Staphylococcus (GC 4551) (Staphylococcus sp.): >64 µg/mL
MIC Coagulase Negative Staphylococcus (ID-3941) (Staphylococcus sp.): 64 µg/mL (≈ 45.4 µM)
MIC Staphylococcus aureus (ATCC 29213) (Staphylococcus sp.): >64 µg/mL
MIC Staphylococcus aureus (GC 1131) (Staphylococcus sp.): >64 µg/mL
MIC Staphylococcus aureus (GC 4541) (Staphylococcus sp.): >64 µg/mL
MIC Staphylococcus aureus (GC 4542) (Staphylococcus sp.): >64 µg/mL
MIC Staphylococcus aureus (GC 4544) (Staphylococcus sp.): >64 µg/mL
MIC Staphylococcus aureus (GC 4545) (Staphylococcus sp.): >64 µg/mL
MIC Staphylococcus aureus-SMITH (GC 4543) (Staphylococcus sp.): >64 µg/mL
MIC Staphylococcus aureus (ATCC 29213) (Staphylococcus sp.; strain ATCC 29213): >64 µg/mL
MIC Staphylococcus aureus (GC 1131) (Staphylococcus sp.; strain GC 1131): >64 µg/mL
MIC Staphylococcus aureus (GC 4541) (Staphylococcus sp.; strain GC 4541): >64 µg/mL
MIC Staphylococcus aureus (GC 4542) (Staphylococcus sp.; strain GC 4542): >64 µg/mL
MIC Staphylococcus aureus-SMITH (GC 4543) (Staphylococcus sp.; strain GC 4543): >64 µg/mL
MIC Staphylococcus aureus (GC 4544) (Staphylococcus sp.; strain GC 4544): >64 µg/mL
MIC Staphylococcus aureus (GC 4545) (Staphylococcus sp.; strain GC 4545): >64 µg/mL
MIC Coagulase Negative Staphylococcus (GC 4547) (Staphylococcus sp.; strain GC 4547): >64 µg/mL
MIC Coagulase Negative Staphylococcus (GC 4548) (Staphylococcus sp.; strain GC 4548): >64 µg/mL
MIC Coagulase Negative Staphylococcus (GC 4549) (Staphylococcus sp.; strain GC 4549): >64 µg/mL
MIC Coagulase Negative Staphylococcus (GC 4551) (Staphylococcus sp.; strain GC 4551): >64 µg/mL
MIC Coagulase Negative Staphylococcus (ID-3941) (Staphylococcus sp.; strain ID-3941): 64 µg/mL (≈ 45.4 µM)
MIC Escherichia coli (ATCC 25922) (Escherichia coli): >64 µg/mL
MIC Escherichia coli (GC 4559) (Escherichia coli): >64 µg/mL
MIC Escherichia coli (GC 4560) (Escherichia coli): 4 µg/mL (≈ 2.84 µM)
Structure (SMILES): CCCCCNC(=O)OC1C(CO)OC(OC2C(CO)OC(Oc3ccc(CC4NC(=O)C(C(C)c5ccccc5)NC(=O)CNC(=O)C(CO)NC(=O)C(C(O)C5CNC(=N)N5C5OC(CO)C(O)C(O)C5O)NC(=O)C(C(O)C5CNC(=N)N5)NC4=O)cc3)C(O)C2O)C(O)C1O (stereo not drawn) [Example 251]
MIC Staphylococcus haemolyticus (GC 4546) (Staphylococcus sp.): >64 µg/mL
MIC Staphylococcus haemolyticus (GC 4546) (Staphylococcus sp.; strain GC 4546): >64 µg/mL
